Data: the NIST ThermoML archive (doi:10.1021/acs.jced.7b00213)

Experiment: xn = mol fraction of the nth substance listed
Settings: Gas, Buoyancy - hydrostatic balance with magnetic suspension - two sinkers, x1 = 0.05362

[HH] [hydrogen] + O=C=O
Settings	mass density [kg/m3]
273.15 K, 513.52 kPa	9.74868
273.15 K, 1039.6 kPa	20.4494
273.15 K, 1524.6 kPa	31.0881
273.15 K, 2022.4 kPa	42.9575
273.15 K, 2536.9 kPa	56.521
273.15 K, 3036 kPa	71.3532
293.15 K, 503.16 kPa	8.83486
293.15 K, 1014.6 kPa	18.2895
293.15 K, 1992 kPa	37.9543
293.15 K, 3016.7 kPa	61.5091
293.15 K, 4051.1 kPa	89.7154
293.15 K, 4984.9 kPa	121.352
323.15 K, 549.21 kPa	8.70026
323.15 K, 1038.1 kPa	16.7369
323.15 K, 2031.1 kPa	34.0104
323.15 K, 3009.8 kPa	52.4905
323.15 K, 4029.4 kPa	73.5962
323.15 K, 5030.4 kPa	96.6051
323.15 K, 5997.4 kPa	121.561
